Legend:
[1] = target: mTOR PI kinase-related kinase (Homo sapiens, UniProt P42345); assay: In vitro mTOR PI kinase-related kinase assay (AlphaScreen), Test (b); format: biochemical; details: recombinant mTOR (1362-2549), ATP 20 μM, read-out: IC50 versus mTOR PI kinase-related kinase
Procedure: (b) In Vitro mTOR PI Kinase-Related Kinase Assay
The assay used AlphaScreen technology (Gray et al, Analytical Biochemistry, 2003, 313: 234-245) to determine the ability of test compounds to inhibit phosphorylation by recombinant mTOR. […]
Each reaction was stopped by the addition of 10 μl of a mixture of EDTA (50 mM), bovine serum albumin (BSA; 0.5 mg/ml) and Tris-HCl pH7.4 buffer (50 mM) containing p70 S6 Kinase (T389) 1A5 Monoclonal Antibody (Cell Signalling Technology, Catalogue No. 9206B) and AlphaScreen Streptavidin donor and Protein A acceptor beads (200 ng; Perkin Elmer, Catalogue No. 6760002B and 6760137R respectively) were added and the assay plates were left for about 20 hours at room temperature in the dark. The resultant signals arising from laser light excitation at 680 nm were read using a Packard Envision instrument.
Phosphorylated biotinylated peptide is formed in situ as a result of mTOR mediated phosphorylation. […] Upon laser light excitation at 680 nm, the donor bead:acceptor bead complex produces a signal that can be measured. […]
mTOR enzyme inhibition for a given test compound was expressed as an IC50 value.

p110α Type Ia human PI3K = target: T1, p110α Type Ia human PI3K (Homo sapiens, UniProt P42336); assay: In vitro PI3K enzyme assay (AlphaScreen), Test (a); format: biochemical; details: recombinant enzyme, ATP 4 μM, read-out: IC50 versus p110α Type Ia human PI3K
T1 construct: full length DNA of each of the p110α, p110β and p110δ Type Ia human PI3K p110 isoforms; 6-His; made in house
T1 sequence (P42336 whole entry, canonical isoform): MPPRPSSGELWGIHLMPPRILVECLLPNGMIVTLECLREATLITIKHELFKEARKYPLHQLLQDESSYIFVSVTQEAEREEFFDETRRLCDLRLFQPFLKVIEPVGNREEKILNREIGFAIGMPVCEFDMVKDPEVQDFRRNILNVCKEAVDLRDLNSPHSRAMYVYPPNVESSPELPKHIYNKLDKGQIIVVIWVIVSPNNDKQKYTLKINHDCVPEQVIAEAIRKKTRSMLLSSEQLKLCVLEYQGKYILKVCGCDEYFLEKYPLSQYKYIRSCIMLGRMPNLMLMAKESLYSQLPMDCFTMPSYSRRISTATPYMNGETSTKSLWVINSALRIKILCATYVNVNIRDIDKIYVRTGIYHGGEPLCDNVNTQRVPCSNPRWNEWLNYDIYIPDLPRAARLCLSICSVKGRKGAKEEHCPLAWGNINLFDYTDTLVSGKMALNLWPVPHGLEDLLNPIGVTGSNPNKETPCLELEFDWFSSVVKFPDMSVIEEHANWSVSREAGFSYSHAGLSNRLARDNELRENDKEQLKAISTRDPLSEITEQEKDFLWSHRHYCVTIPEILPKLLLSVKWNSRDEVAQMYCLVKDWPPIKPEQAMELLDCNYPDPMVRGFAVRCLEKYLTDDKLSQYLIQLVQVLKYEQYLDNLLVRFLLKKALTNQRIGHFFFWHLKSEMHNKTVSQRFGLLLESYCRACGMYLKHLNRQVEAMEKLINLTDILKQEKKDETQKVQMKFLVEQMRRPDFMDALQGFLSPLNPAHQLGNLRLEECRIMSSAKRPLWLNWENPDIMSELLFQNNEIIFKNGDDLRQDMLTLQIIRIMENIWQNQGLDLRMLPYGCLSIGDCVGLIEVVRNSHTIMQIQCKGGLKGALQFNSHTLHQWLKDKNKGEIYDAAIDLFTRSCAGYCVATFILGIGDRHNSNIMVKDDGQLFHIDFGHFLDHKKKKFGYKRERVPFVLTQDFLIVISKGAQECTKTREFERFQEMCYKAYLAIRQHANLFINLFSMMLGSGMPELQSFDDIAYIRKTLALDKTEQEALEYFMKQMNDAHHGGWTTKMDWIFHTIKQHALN
T1 sequence (P27986 whole entry partner, canonical isoform): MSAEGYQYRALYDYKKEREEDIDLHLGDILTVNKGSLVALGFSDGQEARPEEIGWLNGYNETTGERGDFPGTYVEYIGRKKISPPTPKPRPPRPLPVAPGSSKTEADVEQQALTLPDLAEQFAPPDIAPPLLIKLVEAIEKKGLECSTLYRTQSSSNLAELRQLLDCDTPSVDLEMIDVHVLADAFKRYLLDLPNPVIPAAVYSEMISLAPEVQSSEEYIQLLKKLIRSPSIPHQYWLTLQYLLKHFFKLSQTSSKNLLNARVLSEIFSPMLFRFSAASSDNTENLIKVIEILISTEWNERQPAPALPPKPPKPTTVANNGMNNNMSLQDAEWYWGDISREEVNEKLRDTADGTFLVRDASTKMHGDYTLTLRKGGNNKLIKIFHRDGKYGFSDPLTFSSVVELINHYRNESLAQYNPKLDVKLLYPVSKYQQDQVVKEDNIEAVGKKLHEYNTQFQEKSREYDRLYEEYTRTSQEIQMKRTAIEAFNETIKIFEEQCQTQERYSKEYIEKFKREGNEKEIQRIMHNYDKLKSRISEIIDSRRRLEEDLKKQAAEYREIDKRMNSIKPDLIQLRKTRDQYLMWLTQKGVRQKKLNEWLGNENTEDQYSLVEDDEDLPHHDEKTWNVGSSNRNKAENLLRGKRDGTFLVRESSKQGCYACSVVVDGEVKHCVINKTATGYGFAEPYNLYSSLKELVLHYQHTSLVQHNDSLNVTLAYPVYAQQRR
Source text: (a) In Vitro PI3K Enzyme Assay
The assay used AlphaScreen technology (Gray et al., Analytical Biochemistry, 2003, 313: 234-245) to determine the ability of test compounds to inhibit phosphorylation by recombinant Type I PI3K enzymes of the lipid PI(4,5)P2.
DNA fragments encoding human PI3K catalytic and regulatory subunits were isolated from cDNA libraries using standard molecular biology and PCR cloning techniques. The selected DNA fragments were used to generate baculovirus expression vectors. In particular, full length DNA of each of the p110α, p110β and p110δ Type Ia human PI3K p110 isoforms (EMBL Accession Nos. HSU79143, S67334, Y10055 for p110α, p110β and p110δ respectively) were sub-cloned into a pDEST10 vector (Invitrogen Limited, Fountain Drive, Paisley, UK). The vector is a Gateway-adapted version of Fastbac1 containing a 6-His epitope tag. A truncated form of Type Ib human PI3K p110γ isoform corresponding to amino acid residues 144-1102 (EMBL Accession No. X8336A) and the full length human p85α regulatory subunit (EMBL Accession No. HSP13KIN) were also sub-cloned into pFastBac1 vector containing a 6-His epitope tag. The Type Ia p110 constructs were co-expressed with the p85α regulatory subunit. Following expression in the baculovirus system using standard baculovirus expression techniques, expressed proteins were purified using the His epitope tag using standard purification techniques.
DNA corresponding to amino acids 263 to 380 of human general receptor for phosphoinositides (Grp1) PH domain was isolated from a cDNA library using standard molecular biology and PCR cloning techniques. The resultant DNA fragment was sub-cloned into a pGEX 4T1 E. coli expression vector containing a GST epitope tag (Amersham Pharmacia Biotech, Rainham, Essex, UK) as described by Gray et al., Analytical Biochemistry, 2003, 313: 234-245). The GST-tagged Grp1 PH domain was expressed and purified using standard techniques.
Test compounds were prepared as 10 mM stock solutions in DMSO and diluted into water as required to give a range of final assay concentrations. Aliquots (2 μl) of each compound dilution were placed into a well of a Greiner 384-well low volume (LV) white polystyrene plate (Greiner Bio-one, Brunel Way, Stonehouse, Gloucestershire, UK Catalogue No. 784075). […]
Biotinylated-DiC8-PI(3,4,5)P3 (50 nM; Cell Signals Inc., Catalogue No. 107), recombinant purified GST-Grp1 PH protein (2.5 nM) and AlphaScreen Anti-GST donor and acceptor beads (100 ng; Packard Bioscience Limited, Station Road, Pangbourne, Berkshire, UK, Catalogue No. 6760603M) were added and the assay plates were left for about 5 to 20 hours at room temperature in the dark. The resultant signals arising from laser light excitation at 680 nm were read using a Packard AlphaQuest instrument. […]

[2] = system: phosphorylation of Serine 473 in Akt; assay: In vitro phospho-Ser473 Akt assay in MDA-MB-468 cells, Test (c); format: cell-based; details: Homo sapiens, 2 hours, read-out: IC50, inhibition of phosphorylation of Serine 473 in Akt
Procedure: (c) In Vitro Phospho-Ser473 Akt Assay
This assay determines the ability of test compounds to inhibit phosphorylation of Serine 473 in Akt as assessed using Acumen Explorer technology (TTP LabTech Limited, Royston, Herts, SG8 6EE, UK), a plate reader that can be used to rapidly quantitate features of images generated by laser-scanning.
A MDA-MB-468 human breast adenocarcinoma cell line (LGC Promochem, Teddington, Middlesex, UK, Catalogue No. HTB-132) was routinely maintained at 37° C. with 5% CO2 up to a confluency of 70-90% in DMEM containing 10% FCS and 1% L-glutamine.
For the assay, the cells were detached from the culture flask using ‘Accutase’ (Innovative Cell Technologies Inc., San Diego, Calif., USA; Catalogue No. AT104) using standard tissue culture methods and resuspended in media to give 5.5×10^4 cells per ml. Aliquots (90 μl) were seeded into each of the inner 60 wells of a black ‘Costar’ 96-well plate (Corning Inc., NY, USA; Catalogue No. 3904) to give a density of ˜5000 cells per well. Aliquots (90 μl) of culture media were placed in the outer wells to prevent edge effects. [An alternative cell handling procedure involved the maintenance of the cells in a ‘SelecT’ robotic device (The Automation Partnership, Royston, Herts SG8 5WY, UK). Cells were resuspended in media to give 5×10^4 cells per ml. Aliquots (100 μl) were seeded into the wells of a black ‘Costar’ 96-well plate.] The cells were incubated overnight at 37° C. with 5% CO2 to allow them to adhere.
On day 2, the cells were treated with test compounds. Test compounds were prepared as 10 mM stock solutions in DMSO and serially diluted as required with DMSO and with growth media to give a range of concentrations that were 10-fold the required final test concentrations. Aliquots (10 μl) of each compound dilution were placed in duplicate wells to give the final required concentrations. As a minimum response control, each plate contained wells having a final concentration of 30 μM LY294002 (Calbiochem, Beeston, UK, Catalogue No. 440202). As a maximum response control, wells contained 0.5% DMSO instead of test compound. [An alternative cell treatment procedure involved the transfer of test compounds to the wells using an ‘Echo 550’ liquid dispenser (Labcyte Inc., Sunnyvale, Calif. 94089, USA). Test compounds were prepared as 10 mM stock solutions in DMSO and aliquots (40 μl) of each compound were dispensed into one well of a quadrant of wells within a 384-well plate (Labcyte Inc., Catalogue No. P-05525-CV1). Four concentrations of each compound were prepared in each quadrant of wells in the 384-well plate using a ‘Hydra II’ pipettor (Matrix Technologies Corporation, Handforth SK9 3LP, UK). […]

mTOR PI kinase-related kinase, sequence (P42345 1362-2549): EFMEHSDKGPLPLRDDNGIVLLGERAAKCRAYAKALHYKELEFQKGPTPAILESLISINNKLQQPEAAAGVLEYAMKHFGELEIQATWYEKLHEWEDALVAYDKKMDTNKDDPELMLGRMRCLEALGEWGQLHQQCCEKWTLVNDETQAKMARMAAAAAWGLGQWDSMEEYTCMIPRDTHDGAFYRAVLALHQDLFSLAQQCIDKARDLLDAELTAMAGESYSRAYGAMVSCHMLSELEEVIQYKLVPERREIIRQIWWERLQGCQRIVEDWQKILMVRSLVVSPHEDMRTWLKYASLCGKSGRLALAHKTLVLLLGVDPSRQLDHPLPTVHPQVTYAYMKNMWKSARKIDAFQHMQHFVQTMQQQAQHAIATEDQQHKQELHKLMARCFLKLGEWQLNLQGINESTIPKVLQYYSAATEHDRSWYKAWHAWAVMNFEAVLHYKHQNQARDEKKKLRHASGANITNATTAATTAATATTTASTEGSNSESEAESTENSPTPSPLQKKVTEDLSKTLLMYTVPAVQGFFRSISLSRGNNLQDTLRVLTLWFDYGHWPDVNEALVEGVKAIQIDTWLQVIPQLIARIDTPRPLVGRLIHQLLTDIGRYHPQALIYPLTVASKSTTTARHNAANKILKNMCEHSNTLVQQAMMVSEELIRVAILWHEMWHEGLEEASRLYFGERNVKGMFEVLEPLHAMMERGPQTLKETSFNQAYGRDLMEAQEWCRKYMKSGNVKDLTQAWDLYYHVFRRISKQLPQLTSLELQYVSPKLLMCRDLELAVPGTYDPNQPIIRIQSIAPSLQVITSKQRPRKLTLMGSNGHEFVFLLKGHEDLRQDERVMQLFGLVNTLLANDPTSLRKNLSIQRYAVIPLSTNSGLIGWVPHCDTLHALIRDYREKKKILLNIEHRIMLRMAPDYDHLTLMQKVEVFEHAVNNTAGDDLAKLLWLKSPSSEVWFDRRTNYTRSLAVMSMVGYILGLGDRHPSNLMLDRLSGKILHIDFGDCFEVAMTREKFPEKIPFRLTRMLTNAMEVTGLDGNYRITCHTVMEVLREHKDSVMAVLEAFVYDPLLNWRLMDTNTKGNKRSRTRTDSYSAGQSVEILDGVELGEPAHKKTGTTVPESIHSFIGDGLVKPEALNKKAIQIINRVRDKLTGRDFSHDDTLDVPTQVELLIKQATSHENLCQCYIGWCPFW

IC50 [1] [µM]	IC50 (p110α Type Ia human PI3K) [µM]	IC50 [2] [µM]	Compound
~1	~0.5	~13	CS(=O)(=O)Nc1cc(-c2cnc3[nH]ccc3c2)cnc1Cl [Example 1, N-[2-chloro-5-(1H-pyrrolo[2,3-b]pyridin-5-yl)pyridin-3-yl]methanesulphonamide]
	~0.5	~2	Cc1nc2[nH]cnc2cc1-c1cnc(Cl)c(NS(=O)(=O)c2ccccc2)c1 [Example 7, N-[2-chloro-5-(5-methyl-3H-imidazo[4,5-b]pyridin-6-yl)pyridin-3-yl]benzenesulphonamide]
	~0.2	~5	O=S(=O)(Nc1cc(-c2cnc3[nH]ccc3c2)cnc1Cl)c1ccccc1 [Example 3, N-[2-chloro-5-(1H-pyrrolo[2,3-b]pyridin-5-yl)pyridin-3-yl]benzenesulphonamide]
	~0.1	~3	Cc1nc2[nH]ccc2cc1-c1cnc(Cl)c(NS(=O)(=O)c2ccccc2)c1 [Example 8, N-[2-chloro-5-(6-methyl-1H-pyrrolo[2,3-b]pyridin-5-yl)pyridin-3-yl]benzenesulphonamide]
